# In patent US20240208963A1, “CRYSTALLINE MELANOCORTIN SUBTYPE-2 RECEPTOR (MC2R) ANTAGONIST” (Crinetics Pharmaceuticals, Inc., priority 2022, published 2024):
# Where two headings read alike, the source gives them in different places.
# Columns and labels:
# [1] = Solubility of solid state forms in solvents (gravimetric or solvent addition); assay type: physicochemical; settings: for solubility: thermodynamic from solid, read-out: Solubility
# Protocol: The solubility of certain solid state forms of Compound I was determined in various solvents by either gravimetric solubility or solvent addition.
# About 25 mg of compound was weighed into vials. Approximately 5 vol. (0.125 mL) of solvent was added to the solids and the mixtures stirred at the designated temperature (RT or 50° C.). Solutions were noted and an additional 0.125 mL of solvent was added to the slurries. […] If a thicker slurry was noted, 0.25 mL of solvent was added (total volume 0.5 mL). If a thick slurry was again noted, an additional 0.25 mL of solvent was added (total volume 0.75 mL). After stirring for 2 days, the slurries were centrifuged, the supernatant was collected into preweighed vials, and the solvent evaporated at 50° C. (ambient pressure) without stirring. The vials containing the solid residues were dried in a vacuum oven at 50 C, 10^−2-10^−1 Torr, for 3 h before weighing again to determine the mass of solid that was dissolved in the supernatant (i.e. mg solid/mL solvent).
# About 20 mg of compound was weighed into vials. Solvent was added in aliquots and stirred at the designated temperature until complete dissolution was observed. This measurement gave a solubility range.
# [2] = Solubility in simulated fluids and water; assay type: physicochemical; settings: 37° C.
# Protocol: Calibration samples for solubility in simulated fluids were prepared with freebase Compound I.
# Solubility in simulated fluids were studied with the mandelate and maleate solids. The simulated fluids FaSSIF (fasted-state intestinal), FaSSGF (fasted-state gastric), and FeSSIF (fed-state intestinal) were removed from the refrigerator, warmed to room temperature, and the pH of each was measured. Between 1.9 and 2.0 mg of each salt was weighed into four vials and 1 mL of each fluid was added, including water. Stir bars (10 mm) were added to the vials and the vials were stirred at 37° C. After 30 mi (mandelate samples) or 1 h (maleate samples), the pH of each solution was measured, then 400 μL of each was removed and syringe filtered with 0.45 µm syringe filters. Approximately 300 μL of the recovered filtrate was diluted 5× with diluent and injected for HPLC analysis. The remainder of the samples in the vials were allowed to stir overnight. After 24 h stirring at 37° C., samples were filtered and diluted as before, and injected for analysis.
# [3] = Dynamic vapor sorption (DVS); assay type: physicochemical
# Protocol: DVS was performed using a DVS Intrinsic 1. The sample (20-25 mg) was loaded into a sample pan, suspended from a microbalance and exposed to a humidified stream of nitrogen gas. The sample was held for a minimum of 5 min at each level and only progressed to the next humidity level if there was <0.002% change in weight between measurements (interval: 60 s) or 240 min had elapsed. The following program was used: • 1. Equilibration at 50% RH • 2. 50% to 2%. (50%, 40%, 30%, 20%, 10%, and 2%) • 3. 2% to 95% (2%, 10%, 20%, 30%, 40%, 50%, 60%, 70%, 80%, 90%, and 95%) • 4. 95% to 2% (95%, 80%, 70%, 60%, 50%, 40%, 30%, 20%, 10%, and 2%) • 5. 2% to 50% (2%, 10%, 20%, 30%, 40%, and 50%)
# [4] = Form stability at ambient conditions for one week (XRPD); assay type: physicochemical; settings: listed as Pattern C, maleate
# From the text: Some of the samples generated in the antisolvent crystallization experiments were mixtures of Pattern B, Pattern C, and Pattern D. These samples were left at ambient conditions for one week, then analyzed again by XRPD.
# Pure Pattern B was generated in the antisolvent crystallization with MIBK and heptane. […] The solids were scraped from the XRPD plate and used for simultaneous TGA/DSC analysis. […] After the solids required for the TGA/DSC analysis were transferred to the pan, the remainder of the solids were re-pressed to the XRPD sample plate and analyzed again.
# [5] = Salt screening XRPD stages: drying and overnight humidity exposure; settings: >95% relative humidity overnight
# Protocol: XRPD analysis is typically done in three stages: 1) Wet: XRPD of the wet cake is done for all samples whenever solids appropriate for sampling were observed. 2) Dry: Unique solids are then left on XRPD plates and dried under vacuum at 50° C. for at least 3 h. XRPD of unique dry solids are then collected. 3) Humid: Solids are then exposed to >95% relative humidity overnight and XRPD on resulting solids is collected. The humid environment is generated by placing a beaker of saturated potassium sulfate in water in a sealed container. This procedure is not carried out for any amorphous solids obtained. All XRPD patterns are compared to counter ion XRPD patterns and known free molecule patterns.
# A qualitive humidity exposure test was performed by exposing approximately 10 mg of the maleate to 80% RH overnight.
# [6] = Stability of crystalline forms at 40° C. and 75% relative humidity (XRPD, HPLC purity); settings: for Change by XRPD after storage / Degradation by HPLC purity analysis after storage: 40° C., 75% relative humidity
# Protocol: Approximately 10 mg of the Crystalline Pattern D of Compound I Maleate, 20 mg of the Crystalline Pattern C of Compound I Maleate, and 10 mg of the Crystalline Pattern E of Compound I Mandelate were weighed into open 4 mL vials that were placed into a 20 mL vial containing a saturated NaCl solution. The vial was sealed and kept at 40° C. for 7 days, creating an atmosphere at 75% relative humidity in the system. After 7 days, the materials were sampled and plated for XRPD analysis.
# The stability test was repeated on Patterns C and D of Compound I Maleate for 11 days.
compound,measurement,setting,value
"CCOc1ccccc1-c1ccc(N2CCN(C(=O)C3(C(F)(F)F)CCC3)C[C@H]2CC)c(C(=O)N[C@@H]2CN3CCC2CC3)n1.O=C(O)/C=C\C(=O)O [Pattern C Maleate, N-[(3S)-1-azabicyclo[2.2.2]octan-3-yl]-6-(2-ethoxyphenyl)-3-[(2R)-2-ethyl-4-[1-(trifluoromethyl)-cyclobutanecarbonyl]piperazin-1-yl]pyridine-2-carboxamide maleate]",Solubility (in words),"[1]; MeOH, EtOH, acetone, THF, ACN, MEK, DMSO, and water containing systems at 8:2 vol. water:organic",freely soluble
same,solubility,"[1]; aqueous with cosolvent or surfactant or cyclodextrin, ACN:water (2:8 vol.), RT",> 200 mg/mL
same,solubility,"[1]; aqueous with cosolvent or surfactant or cyclodextrin, IPA:water (2:8 vol.), RT",> 200 mg/mL
same,solubility,"[1]; aqueous with cosolvent or surfactant or cyclodextrin, acetone:water (2:8 vol.), RT",> 200 mg/mL
same,solubility,"[1]; organic solvent or mixture, ACN, RT",> 200 mg/mL
same,solubility,"[1]; organic solvent or mixture, DMSO, RT",> 200 mg/mL
same,solubility,"[1]; organic solvent or mixture, EtOAc, 50° C.",34 mg/mL
same,solubility,"[1]; organic solvent or mixture, EtOAc, RT",21 mg/mL
same,solubility,"[1]; organic solvent or mixture, EtOH, RT",> 200 mg/mL
same,solubility,"[1]; organic solvent or mixture, IPA, 50° C.",> 500 mg/mL
same,solubility,"[1]; organic solvent or mixture, IPA, RT",> 200 mg/mL
same,solubility,"[1]; organic solvent or mixture, IPA:MtBE (1:1 vol.), 50° C.",36 to 43 mg/mL
same,solubility,"[1]; organic solvent or mixture, IPA:heptane (1:1 vol.), 50° C.",16 to 19 mg/mL
same,solubility,"[1]; organic solvent or mixture, IPAc, 50° C.",13 mg/mL
same,solubility,"[1]; organic solvent or mixture, IPAc, RT",8 mg/mL
same,solubility,"[1]; organic solvent or mixture, MEK, RT",> 200 mg/mL
same,solubility,"[1]; organic solvent or mixture, MIBK, 50° C.",71 mg/mL
same,solubility,"[1]; organic solvent or mixture, MIBK, RT",49 mg/mL
same,solubility,"[1]; organic solvent or mixture, MeOAc, 50° C.",> 500 mg/mL
same,solubility,"[1]; organic solvent or mixture, MeOAc, RT",> 200 mg/mL
same,solubility,"[1]; organic solvent or mixture, MeOAc:IPAc (1:1 vol.), 50° C.",37 to 45 mg/mL
same,solubility,"[1]; organic solvent or mixture, MeOH, RT",> 200 mg/mL
same,solubility,"[1]; organic solvent or mixture, MtBE, 50° C.",4 mg/mL
same,solubility,"[1]; organic solvent or mixture, MtBE, RT",4 mg/mL
same,solubility,"[1]; organic solvent or mixture, THF, RT",> 200 mg/mL
same,solubility,"[1]; organic solvent or mixture, acetone, RT",> 200 mg/mL
same,solubility,"[1]; organic solvent or mixture, acetone:heptane (1:1 vol.), 50° C.",31 to 37 mg/mL
same,solubility,"[1]; organic solvent or mixture, chloroform, RT",> 200 mg/mL
same,solubility,"[1]; organic solvent or mixture, cyclohexane, 50° C.",3 mg/mL
same,solubility,"[1]; organic solvent or mixture, cyclohexane, RT",< 3 mg/mL
same,solubility,"[1]; organic solvent or mixture, n-heptane, 50° C.",3 mg/mL
same,solubility,"[1]; organic solvent or mixture, n-heptane, RT",< 3 mg/mL
same,solubility,"[1]; organic solvent or mixture, toluene, 50° C.",7 mg/mL
same,solubility,"[1]; organic solvent or mixture, toluene, RT",< 3 mg/mL
same,Behaviour in solvent (in words),[1]; water and 95:5 vol. water:organic systems,Gels/gums were generated
same,solubility at 1 h,"[2]; FaSSGF (fasted-state simulated gastric fluid), pH 1.49, fassgf or other biorelevant, thermodynamic from solid, FaSSGF, 1 h",< 2.5 mg/mL
same,solubility at 24 h,"[2]; FaSSGF (fasted-state simulated gastric fluid), pH 1.49, fassgf or other biorelevant, thermodynamic from solid, FaSSGF, 24 h",> 2.5 mg/mL
same,Sample pH,"[2]; FaSSGF (initial pH 1.49), 1 h",4.66
same,Sample pH,"[2]; FaSSGF (initial pH 1.49), 24 h",5.08
same,solubility at 24 h,"[2]; FaSSIF (fasted-state simulated intestinal fluid), pH 6.35, thermodynamic from solid, FaSSIF, 24 h",1.41 mg/mL
same,solubility at 1 h,"[2]; FaSSIF (fasted-state simulated intestinal fluid), thermodynamic from solid, FaSSIF, 1 h",1.24 mg/mL
same,Sample pH,"[2]; FaSSIF (initial pH 6.35), 1 h",6.23
same,Sample pH,"[2]; FaSSIF (initial pH 6.35), 24 h",6.98
same,"Solids recovered from the solubility experiment (appearance, XRPD)","[2]; FaSSIF, after 24 h",oily and appeared as amorphous
same,solubility at 1 h,"[2]; FeSSIF (fed-state simulated intestinal fluid), pH 4.83, thermodynamic from solid, FeSSIF, 1 h",> 2.5 mg/mL
same,solubility at 24 h,"[2]; FeSSIF (fed-state simulated intestinal fluid), pH 4.83, thermodynamic from solid, FeSSIF, 24 h",> 2.5 mg/mL
same,Sample pH,"[2]; FeSSIF (initial pH 4.83), 1 h",1.50
same,Sample pH,"[2]; FeSSIF (initial pH 4.83), 24 h",1.89
same,solubility at 1 h,"[2]; thermodynamic from solid, water, 1 h",> 2.5 mg/mL
same,solubility at 24 h,"[2]; thermodynamic from solid, water, 24 h",> 2.5 mg/mL
same,Sample pH,"[2]; water, 1 h",~6.35
same,Sample pH,"[2]; water, 24 h",5.50
same,Hygroscopicity (in words),[3]; DVS,moderately hygroscopic
same,Change by XRPD following the DVS analysis,[3]; after DVS from 2 to 95% RH,Slight changes
same,Reversible mass gain (DVS),[3]; from 2 to 95% relative humidity,9.18 wt. %
same,Behaviour at high humidity,[3]; high humidity,began to convert to amorphous
same,Form conversion by XRPD at ambient conditions,[4],no observable conversion
same,"Stability after humidity exposure (XRPD, deliquescence)",[5],stable with no observed deliquescence
same,Change by XRPD after storage,[6]; 7 days,No visible change
same,Degradation by HPLC purity analysis after storage,[6]; 7 days,no degradation
same,Change by XRPD after storage,[6]; 11 days,No visible change
same,Degradation by HPLC purity analysis after storage,[6]; 11 days,no degradation
same,Stability on storage (in words),[6]; over a week at 40° C. and 75% RH,stable
